Article PMC8910697, “Development of VPC-70619, a Small-Molecule N-Myc Inhibitor as a Potential Therapy for Neuroendocrine Prostate Cancer” (International Journal of Molecular Sciences, 2022)

Tested on: N-Myc-Max transcription activity (LNCaP-NMYC cells)
Experiment: Myc transcription assay (Cignal Myc reporter, luciferase) in LNCaP-NMYC cells
Format: cell-based
Parameters: 10 uM corrected / 5uM corrected: unit not given here
Settings: for inhibition at 5 µM / inhibition at 10 µM: 24 h; for inhibition at 5 µM / inhibition at 10 µM / transcription inhibition activity (in words) / transcription inhibition activity at 5 µM (in words): LNCaP-NMYC; for inhibition at 5 µM: read-out: % Transcript Inhibition (5 µM); for inhibition at 10 µM: read-out: % Transcript Inhibition (10 µM); for IC50: Homo sapiens, LNCaP, Table 2, transcriptional assay in LNCaP cells overexpressing N-Myc, read-out: IC50; for transcription inhibition activity (in words): screened at 10 µM and 5 µM; for 5uM corrected / 10 uM corrected: sheet 181_set
Procedure: To determine the optimal substitutions on the free phenyl ring, we used the active scaffold for a second substructure search against the ZINC15 database to identify a set of 181 analogues for further validation (VPC-70617 to -70799, presented in Supplementary Table S1). Compounds were tested for their inhibition of a N-Myc-Max luciferase transcription activity assay at 5 and 10 µM Figure 2a. Herein, we inspected all the proposed substitutions on the scaffold to discern the features required to construct a possible SAR model for inhibitors targeting N-Myc-Max/DBD complex (Figure 2b).
LNCaP-NMYC cells were transfected using TransIT-2020 transfection reagents per the manufacturer’s protocol. Cells were plated at a density of 10,000 cells per well of a 96-well plate. Following 24 h treatment with 5 µM or 10 µM of the compounds, the Myc reporter activity was measured using the Cignal Myc Reporter Assay Kit from Qiagen (#336841) (Hilden, Germany) per the manufacturer’s instructions.

Row | IC50 [µM] | SMILES | inhibition at 5 µM [%] | inhibition at 10 µM [%] | transcription inhibition activity (in words) | 5uM corrected | 10 uM corrected | transcription inhibition activity at 5 µM (in words)
1 | 8 | C#Cc1ccc(C(=O)NNc2ccc(C#N)cc2C(F)(F)F)cc1 [compound 70582] | 44 | 84 | – | – | – | –
2 | > 20 | O=C(NNc1ccc(C(F)(F)F)cc1)c1ccc(C(F)(F)F)cc1 [compound 70583] | 8 | 28 | – | – | – | –
3 | > 20 | N#Cc1ccc(C(=O)NNc2ccc(C(F)(F)F)cc2)cc1 [compound 70584] | 34 | 30 | – | – | – | –
4 | > 20 | O=C(NNc1ccccc1F)c1ccc(C(F)(F)F)cc1 [compound 70585] | 16 | 24 | – | – | – | –
5 | > 20 | N#Cc1ccc(NNC(=O)c2ccc(C(F)(F)F)cc2)cc1 [compound 70586] | 28 | 34 | significantly reduced inhibition activity | – | – | –
6 | – | N#Cc1ccc(NNC(=O)c2ccc(C#N)cc2)cc1 [compound 70587] | -58 | 14 | – | – | – | –
7 | – | N#Cc1ccc(NNC(=O)c2ccc(OC(F)F)cc2)c(C(F)(F)F)c1 [compound 70588] | 32 | 46 | – | – | – | –
8 | 3 | N#Cc1ccc(NNC(=O)c2ccc(I)cc2)c(C(F)(F)F)c1 [compound 70589] | 64 | 94 | – | – | – | –
9 | 15 | C=Cc1ccc(C(=O)NNc2ccc(C#N)cc2C(F)(F)F)cc1 [compound 70590] | 38 | 62 | – | – | – | –
10 | 25 | N#Cc1ccc(NNC(=O)c2ccc(F)cc2)c(C(F)(F)F)c1 [compound 70591] | 18 | 64 | – | – | – | –
11 | 12 | N#Cc1ccc(C(=O)NNc2ccc(C#N)cc2C(F)(F)F)cc1 [compound 70593] | -26 | 70 | significantly more active | – | – | –
12 | – | CC(C)(C#N)c1ccc(C(=O)NNc2ccc(C#N)cc2C(F)(F)F)cc1 [compound 70594] | 22 | 10 | – | – | – | –
13 | 12 | CC(C)c1ccc(C(=O)NNc2ccc(C#N)cc2C(F)(F)F)cc1 [compound 70595] | 30 | 70 | – | – | – | –
14 | 2 | N#Cc1ccc(NNC(=O)c2cccc(C(F)(F)F)c2)c(C(F)(F)F)c1 [compound 70596] | 96 | 94 | significantly more active | – | – | –
15 | 3 | N#Cc1ccc(NNC(=O)c2ccc(Cl)cc2)c(C(F)(F)F)c1 [compound 70599] | 96 | 78 | significantly more active | – | – | –
16 | – | Cc1ccc(C(=O)NNc2ccc(C#N)cc2C(F)(F)F)cc1 [compound 70600] | -22 | 10 | – | – | – | –
17 | – | N#Cc1ccc(NNC(=O)c2ccc(C(N)=O)cc2)c(C(F)(F)F)c1 [compound 70601] | 16 | -12 | – | – | – | –
18 | – | N#Cc1ccc(NNC(=O)c2ccc(Br)cc2)c(C(F)(F)F)c1 [compound 70602] | 12 | 48 | – | – | – | –
19 | > 20 | N#Cc1ccc(NNC(=O)c2ccccc2)c(C(F)(F)F)c1 [compound 70603] | -30 | -12 | – | – | – | –

Row | IC50 [µM] | SMILES | inhibition at 5 µM [%] | inhibition at 10 µM [%] | transcription inhibition activity (in words) | 5uM corrected | 10 uM corrected | transcription inhibition activity at 5 µM (in words)
20 | – | CN(C)c1ccc(C(=O)NNc2ccc(C#N)cc2C(F)(F)F)cc1 [compound 70605] | -74 | 26 | – | – | – | –
21 | – | CC(F)(F)c1ccc(C(=O)NNc2ccccc2C(F)(F)F)cc1 [compound 70606] | 0 | -10 | – | – | – | –
22 | – | CC(F)(F)c1ccc(C(=O)NNc2ccc(C#N)cc2)cc1 [compound 70607] | -20 | -8 | – | – | – | –
23 | – | CC(F)(F)c1ccc(C(=O)NNc2ccc(C#N)cc2C(F)(F)F)cc1 [compound 70608] | -14 | 38 | – | – | – | –
24 | – | O=C(NNc1ccccc1C(F)(F)F)c1ccc(F)cc1 [compound 70609] | 20 | 12 | – | – | – | –
25 | > 20 | O=C(NNc1ccccc1C(F)(F)F)c1ccc(C(F)(F)F)cc1 [compound 70611] | -28 | 4 | significantly reduced inhibition activity | – | – | –
26 | – | Cc1cc(C(=O)NNc2ccc(C#N)cc2C(F)(F)F)ccc1Cl [compound 70617] | – | – | – | 4 | 96 | did not impart any inhibitory activity
27 | – | N#Cc1ccc(NNC(=O)c2ccc(Cl)cc2Cl)c(C(F)(F)F)c1 [compound 70624] | – | – | abolished inhibitory activity | 8 | 78 | –
28 | – | Cc1ccc(C(=O)NNc2ccc(C#N)cc2C(F)(F)F)cc1Cl [compound 70628] | – | – | lower transcription inhibition or no activity at all | 8 | 90 | –
29 | – | Cc1cc(C)cc(C(=O)NNc2ccc(C#N)cc2C(F)(F)F)c1 [compound 70651] | – | – | no activity | -32 | 0 | –
30 | – | N#Cc1ccc(NNC(=O)c2ccc(C#N)c(O)c2)c(C(F)(F)F)c1 [compound 70673] | – | – | – | -56 | -38 | –
31 | – | N#Cc1ccc(NNC(=O)c2ccccc2Cl)c(C(F)(F)F)c1 [compound 70701] | – | – | declined considerably or was lost completely | -28 | 6 | –
32 | – | N#Cc1ccc(NNC(=O)c2ccccc2I)c(C(F)(F)F)c1 [compound 70702] | – | – | declined considerably or was lost completely | -10 | 10 | –
33 | – | N#Cc1ccc(NNC(=O)c2ccccc2F)c(C(F)(F)F)c1 [compound 70709] | – | – | declined considerably or was lost completely | 0 | -10 | –
34 | – | CS(=O)(=O)c1cc(C(=O)NNc2ccc(C#N)cc2C(F)(F)F)ccc1Cl [compound 70721] | – | – | – | -42 | 2 | did not impart any inhibitory activity
35 | – | N#Cc1ccc(NNC(=O)c2cccc(Br)c2)c(C(F)(F)F)c1 [compound 70754] | – | – | better inhibition activity | 94 | 60 | –
36 | – | Cc1ccc(C(=O)NNc2ccc(C#N)cc2C(F)(F)F)cc1F [compound 70765] | – | – | lower transcription inhibition or no activity at all | 30 | 54 | –
37 | – | N#Cc1ccc(NNC(=O)c2cc(F)c(F)cc2F)c(C(F)(F)F)c1 [compound 70772] | – | – | nullified activity | 22 | 94 | –

Row | SMILES | IC50 [µM] | inhibition at 5 µM [%] | inhibition at 10 µM [%] | transcription inhibition activity (in words) | 5uM corrected | 10 uM corrected | transcription inhibition activity at 5 µM (in words)
38 | N#Cc1ccc(NNC(=O)c2ccc(C(F)(F)F)cc2)c(C(F)(F)F)c1 [compound 70597] | 12 | 26 | 82 | – | – | – | –
